Experimental data taken from US4300011A, “Selective production of aromatics” (Mobil Oil Corporation, priority 1980, dated 1981).

Columns and labels:
[1] = Effective critical dimension from CPK space-filling atomic models; assay type: physicochemical
Excerpt: The concept of an "effective critical dimension" of a molecule is described by Breck on pages 633 to 641 in Zeolite Molecular Sieves, John Wiley & Sons, Inc. (1974), the entire contents of which are incorporated herein by reference. Generally, this dimension is the smallest dimension that will permit passage through the pores of the zeolite, i.e., the dimension that most nearly approaches the pore size of the zeolite. For example, the critical dimension of n-hexane is the thickness not the length, while the critical dimension for benzene is the cross-sectional diameter, rather than the thickness.
Effective critical dimensions for the purposes of this invention were determined by the use of CPK (Corey-Pauling-Koltun) space-filling atomic models, obtained from Ealing Corporation, Natick, Mass. The following Table illustrates critical dimensions measured from such models with corresponding pKa values for several heterocyclic compounds.

[2] = cited from earlier work; for pKa: from Katritzky, Physical Methods in Heterocyclic Chemistry

Row | Effective Critical Dimension [1] [Angstroms] | Structure (SMILES) | pKa [2] | relative base strength ([2]; versus 1,10-phenanthroline)
1 | 7.5 | c1cnc2c(c1)ccc1cccnc12 [1,10-Phenanthroline] | – | –
2 | 7.5 | Cc1cc(C)nc(C)c1 [2,4,6-Collidine, 2,4,6-trimethylpyridine] | – | –
3 | 7.9 | Cc1cc(C)c2cccc(C)c2n1 [2,4,8-Trimethylquinoline] | 4.5 | –
4 | 7.5 | Cc1cc(C)c2ccccc2n1 [2,4-Dimethylquinoline] | 5.1 | –
5 | 6.6 | Cc1cccc(C)n1 [2,6-Lutidine] | 6.8 | –
6 | 7.0 | Cc1ccncc1C [3,4-Lutidine, 3,4-dimethylpyridine] | 6.5 | –
7 | 7.4 | Cc1ccnc2c(C)cccc12 [4,8-Dimethylquinoline] | – | –
8 | 7.3 | Cc1ccnc2ccccc12 [4-Methylquinoline] | 5.2 | –
9 | 9.5 | c1ccc(-c2ccnc3c2ccc2c(-c4ccccc4)ccnc23)cc1 [Bathophenanthroline, 4,7-diphenyl-1,10-phenanthroline] | – | –
10 | 8.3 | Cc1ccc2ccc3ccc(C)nc3c2n1 [Neocuproine, 2,9-dimethyl-1,10-phenanthroline] | – | –
11 | 7.7 | Cc1nc(C)c(C)c(C)c1C [Pentamethylpyridine] | – | –

Row | Structure (SMILES) | Effective Critical Dimension [1] [Angstroms] | pKa [2] | relative base strength ([2]; versus 1,10-phenanthroline)
12 | c1ccc2c(c1)ccc1ncccc12 [5,6-Benzoquinoline] | 7.5 | – | slightly stronger base than 1,10-phenanthroline
13 | c1ccc2c(c1)ccc1cccnc12 [7,8-Benzoquinoline] | 7.5 | – | –
14 | c1ccncc1 [Pyridine, reference compound] | 6.2 | – | –
